Results published in patent US11117874B2, “Certain (2S)-N-[(1S)-1-cyano-2-phenylethyl]-1,4-oxazepane-2-carboxamides as dipeptidyl peptidase 1 inhibitors” (AstraZeneca AB, priority 2014, dated 2021).

Assays:
[1] = Test B: In-Vitro Competitive Aortic Tissue Binding Assay; settings: 100 μM compound pre-incubated overnight at 37° C. with rat aortic homogenate, competition with 100 μM [14C]4-amino-N-[(1S)-1-cyano-2-(4′-cyanobiphenyl-4-yl)ethyl]tetrahydro-2H-pyran-4-carboxamide; four categories
Description: To assist the design of DPP1 inhibitors with a decreased risk of binding to elastin rich tissues, such as the aorta, the in-vitro competitive aortic binding assay disclosed below (Test B) was developed to facilitate the selection process.
Test B: In-Vitro Competitive Aortic Tissue Binding Assay
Aortic homogenate was prepared from the thoracic aortae of Han Wistar rats. Freshly isolated to thoracic aortae were frozen, and later thawed and stripped of non-elastic material.
Homogenate concentration was adjusted to 30 mg/mL in Puck's saline, and aliquots were stored at −80° C. until use. Positive and negative control compounds and test compounds were made up to 100 mM in DMSO, and added to 1 mL aliquots of aortic homogenate in Puck's saline for a final concentration of 100 μM. Homogenate samples were pre-incubated with test compounds at 37° C., rotating, overnight. [^14C]4-Amino-N-[(1S)-1-cyano-2-(4′-cyanobiphenyl-4-yl)ethyl]tetrahydro-2H-pyran-4-carboxamide was then added to all samples to a final concentration of 100 μM, and samples were incubated at 37° C., rotating, for a further 2 h. Protein was precipitated from each sample by the addition of 10 mL acetone, pre-chilled to −20° C. Samples were left overnight at −20° C. to allow complete precipitation. Precipitate was pelleted by centrifugation at 4,500×g at 4° C. for 20 min, an aliquot of supernatant was removed for analysis, and the remainder of the supernatant discarded. Precipitate was washed by resuspension in 10 mL 80% methanol in distilled water, and re-pelleted by centrifugation at 4,500×g at 4° C. for 20 min. […] After final wash, precipitate was air-dried, and dissolved overnight in 1 mL NCSII Tissue Solubiliser. 1 mL aliquots of supernatants were added to 5 mL Ultima Gold scintillation fluid (Perkin Elmer, Mass., U.S.A.), and 1 mL solubilised pellets were added to 5 mL Hionic-Fluor scintillation fluid (Perkin Elmer, Mass., U.S.A.). Radioactivity of samples was determined on a Beckman LS6500 multipurpose scintillation counter (Beckman Coulter, Ind., U.S.A.). […] Duplicate samples were tested for each compound on each experimental occasion, and at least two experiments were run for each test compound. […] 1-way ANOVA and to Bonferroni's multiple comparison tests were performed to calculate significance of differences from vehicle control.

[2] = described in literature (Schmidt et al. 1984); cited from earlier work

Compound	Aortic Tissue Binding [1]	retention in the aorta in QWBA studies [2]
Cn1c(=O)oc2ccc(-c3ccc(C[C@@H](C#N)NC(=O)[C@@H]4CNCCCO4)cc3)cc21 [Example 2, (2S)—N-{(1S)-1-Cyano-2-[4-(3-methyl-2-oxo-2,3-dihydro-1,3-benzoxazol-5-yl)phenyl]ethyl}-1,4-oxazepane-2-carboxamide]	No binder	–
Cn1c(=O)oc2ccc(-c3ccc(C[C@@H](C#N)NC(=O)C4(N)CCOCC4)cc3)cc21 [WO2010/128324 (Example 17)]	Strong binder	–
CC(c1ccc(Cl)c(Cl)c1)N1N=C(N)CC1=O (stereo not drawn) [muzolimine]	–	retained selectively in the aorta

More lines, main results first:

Aortic Tissue Binding [1]	Compound	retention in the aorta in QWBA studies [2]
Binder	N#Cc1ccc(-c2ccc(C[C@@H](C#N)NC(=O)[C@@H]3CCCCN3)cc2)cc1 [WO2009/074829 (Example 24)]	–
Medium binder	Cn1c(=O)oc2ccc(-c3ccc(C[C@@H](C#N)NC(=O)[C@@H]4CCCCN4)cc3)cc21 [WO2009/074829 (Example 96)]	–
Strong binder (reference)	N#Cc1ccc(-c2ccc(C[C@@H](C#N)NC(=O)C3(N)CCOCC3)cc2)cc1 [WO2010/128324 (Ex. 3), 4-amino-N-[(1S)-1-cyano-2-(4′-cyanobiphenyl-4-yl)ethyl]tetrahydro-2H-pyran-4-carboxamide]	–
